Test results reported in US12644094B2, “Serpin production” (SOCIETE DES PRODUITS NESTLE S.A., priority 2019, dated 2026).
Ends that are not written are not given here.

Experiments:
[1] = system: B. longum strain CNCM I-2618 (NCC 2705); test: Serpin protein levels (ELISA) in B. longum NCC 2705 grown on different carbohydrates; type: cell-based, Bifidobacterium longum subsp longum
Protocol: B. longum strain CNCM I-2618 (NCC 2705) was grown in Biolector (growth conditions—anaerobic, 37° C.) in MRS+5 mM L-cysteine (MRSc) base without sugar, to which different carbohydrates were added.
(§1) 48-well microtiter plate with pH sensor and dissolved oxygen (DO) sensor were used to culture the strains in Biolector (m2p-labs Aachen, Germany). It was continuously shaken to prevent bacteria aggregation for 24 h and 48 h. Cultures were harvested by centrifugation and supernatant was removed. Pellet was resuspended in PBS supplemented with halt protease inhibitor (Sigma) and lysed using glassbeads. Lysate containing both soluble and insoluble material was then collected. Total protein content was measured using Pierce BCA kit (Thermofisher) and serpin protein concentration was determined using ELISA.
(§2) B. longum NCC 2705 was cultured in Biolector (as described in Example 1) in a base of MRSc without sugar, with the addition of different di-saccharides and tri-saccharides, at concentrations of 0.5 wt % and 1 wt %. Cultures were collected after 48 h of growth and analyzed for total & serpin protein levels (as described in Example 1).
as §2, with “short chain fructo-oligosaccharides (FOS),” for “di-saccharides and tri-saccharides,”, “of” for “of 0.5 wt % and”, “16” for “48”
The FOS used were (i) NutraFlora P95 FOs from Ingredion Inc, USA., a short-chain FOS with Glucose-Fructose (GF) chains with DP from 3 to 5 and comprising GF2, GF3 and GF4 molecules; (ii) Orafti P95 from Beneo, a short-chain FOS with DP from 2 to 8.

[2] = system: B. longum strain CNCM I-2618 (NCC 2705); test: Culture density (Optical Density at 600 nm) of B. longum NCC 2705 grown on carbohydrates; type: cell-based, Bifidobacterium longum subsp longum; conditions: grown on different carbohydrates for 24 h and 48 h (FIG. 2)
Protocol: as §1, with “B. longum strain CNCM I-2618 (NCC 2705) was grown in Biolector (growth conditions-anaerobic, 37° C.) in MRS+5 mM L-cysteine (MRSc) base without sugar, to which different carbohydrates were added. 48-well” for “48-well”, “[…]-labs” for “(m2p-labs”

[3] = system: various forms of elastases and proteinase; conditions: cited from earlier work
transglutaminase 2 (TG2) = target: T1, transglutaminase 2 (TG2) (Homo sapiens, UniProt P21980); conditions: in-vitro, addition of elafin; cited from earlier work
T1 sequence (P21980 1-687): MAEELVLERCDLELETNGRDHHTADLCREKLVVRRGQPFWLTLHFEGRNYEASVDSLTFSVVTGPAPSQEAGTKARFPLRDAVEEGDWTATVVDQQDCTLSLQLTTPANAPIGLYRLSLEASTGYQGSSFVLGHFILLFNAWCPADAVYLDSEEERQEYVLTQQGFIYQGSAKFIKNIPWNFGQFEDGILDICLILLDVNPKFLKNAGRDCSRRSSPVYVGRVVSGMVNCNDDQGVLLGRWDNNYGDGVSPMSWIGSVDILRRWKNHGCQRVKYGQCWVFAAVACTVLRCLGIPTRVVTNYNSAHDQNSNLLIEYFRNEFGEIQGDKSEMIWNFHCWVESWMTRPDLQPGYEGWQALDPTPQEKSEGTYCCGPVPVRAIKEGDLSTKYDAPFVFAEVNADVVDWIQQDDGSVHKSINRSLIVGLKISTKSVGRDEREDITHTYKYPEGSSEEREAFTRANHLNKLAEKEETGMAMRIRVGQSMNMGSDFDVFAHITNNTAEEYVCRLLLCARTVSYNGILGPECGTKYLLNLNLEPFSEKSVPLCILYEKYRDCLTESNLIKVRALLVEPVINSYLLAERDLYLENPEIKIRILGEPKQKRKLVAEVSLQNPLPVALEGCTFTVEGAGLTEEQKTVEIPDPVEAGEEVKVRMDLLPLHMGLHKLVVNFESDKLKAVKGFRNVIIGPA

Which serpin production ([1]; 1 wt %, 48 h of growth, MRSc base without sugar (FIG. 3)) does the source give for `OC[C@H]1O[C@@](CO)(O[C@H]2O[C@H](CO)[C@@H](O)[C@H](O)[C@H]2O)[C@@H](O)[C@@H]1O` [saccharose] here?
The serpin production was “induce strongly serpin production”.

Which “growth (culture density, Optical Density at 600 nm)” value [2] does the source give for `O=C(CO)[C@@H](O)[C@H](O)[C@H](O)CO` [fructose, reference compound] here?
Its value is “retarded growth”.

What about the serpin protein levels ([1]; grown for 48 h on different carbohydrates, compared to all other sugars tested (FIG. 1)) of the same compound?
Its serpin protein levels is “increase B. longum NCC 2705 serpin protein levels”.

What about the serpin induction ([1]; grown on different carbohydrates for 24 h and 48 h (FIG. 2)) of the same compound?
The serpin induction was “induce serpin in B. longum NCC 2705 to a higher magnitude than galactose”.

What does the source list for “elafin: human serine protease inhibitor (AQEPVKGPVSTKPGSCPIILIRCAMLNPPNRCLKDTDCPGIKKCCEGSCGMACFVPQ; ends and bridges not checked; cysteine pairing not given here; UniProt P19957 61-117, looked up)”?
inhibitory capacity against elastases and proteinase [3]: potent inhibitory capacity; inhibition of transglutaminase 2 (TG2) (transglutaminase 2 (TG2)): moderately inhibits transglutaminase 2 (TG2)

For `OC[C@H]1O[C@H](OC[C@H]2O[C@H](O[C@]3(CO)O[C@H](CO)[C@@H](O)[C@@H]3O)[C@H](O)[C@@H](O)[C@@H]2O)[C@H](O)[C@@H](O)[C@H]1O` [raffinose], which serpin levels ([1]; 0.5 wt %, 48 h of growth, MRSc base without sugar (FIG. 3), effect not obtained at 1 wt %) is on record?
The serpin levels was “significant increase in serpin levels”.
